Where “and” joins values, the source holds several entries; their conditions need not be identical. Identical values can stand only once. Entries after “also recorded” stand apart in the source; their conditions may differ.
Assays:
[1] = system: P. cynomolgi sporozoite-infected rhesus macaques; experiment: Causal prophylaxis in P. cynomolgi sporozoite-infected rhesus macaques; assay type: in vivo, Plasmodium cynomolgi; settings: 20 mg/kg oral for 5 days from day 0, 4 monkeys, follow-up until day 102 p.i.
Method: (§1) Sporozoites were harvested from P. cynomolgi-infected mosquitoes, washed with phosphate-buffered saline (PBS), and diluted to 100,000 sporozoites (spz)/ml in PBS. One-milliliter aliquots of sporozoites were prepared and injected into monkeys via intravenous (i.v.) injection.
Monkeys were treated according to the schedule shown in Table 1 (stratification of treatment groups is given in the supplemental material). During treatment, monkeys were weighed daily and received the compound via gavage, followed by gastric feeding (weight change during treatment is shown in Table S6 in the supplemental material). […]
Parasitemia was closely monitored by thin-film analysis. […] Thin-film slides were stained with 20% Giemsa stain, and at least 50 fields (±20,000 erythrocytes [RBCs]) were analyzed with a bright-field microscope (×1,200 magnification). […] From day 23 p.i., monkeys were monitored daily for relapses. The KDU691 radical-cure (group 691-RC) treatment and control groups were monitored until the first relapse. The LMV599 control (group 599-C), radical-cure (group 599-RC), and PQ radical-cure (group PQ-RC) treatment groups were monitored until the second relapse or until day 100 p.i. […]
The prophylaxis groups were monitored daily until day 22 p.i. From day 22 to day 45 p.i., they were monitored three times a week, and from day 45 to day 105 p.i. (100 days after treatment), they were monitored twice a week. […]

[2] = system: P. cynomolgi hypnozoites in primary rhesus hepatocytes; experiment: In vitro liver-stage drug assay with P. cynomolgi, small forms (hypnozoites); assay type: cell-based, Plasmodium cynomolgi; settings: compound exposure 6 days, mean of several (9) independent assays, read-out: IC50 against hypnozoites (small forms)
Method: In vitro infections of primary rhesus hepatocytes with P. cynomolgi sporozoites were performed according to methods described previously by Zeeman et al. ([10]). At day 6 postinfection (p.i.), the assay mixtures were fixed and stained with anti-P. cynomolgi Hsp70 rabbit antiserum and a fluorescein isothiocyanate (FITC)-labeled secondary antibody (goat anti-rabbit). Plates were analyzed with the Operetta high-content imaging system, differentially counting hypnozoites and developing extraerythrocytic forms (EEFs), based on parasite size ([10]).
In vitro activity against P. cynomolgi liver stages was determined for both compounds. The numbers of small (hypnozoites) and large (developing EEFs) parasites were determined by using Operetta and image analysis of primary rhesus hepatocyte cultures infected with P. cynomolgi sporozoites and exposed to the compound for 6 days ([10]). […] IC50s were determined by using the least-squares nonlinear regression method (Prism) for small and large parasites. Data from several independent experiments were used to calculate the IC50s for the two compounds.

[3] = system: P. cynomolgi sporozoite-infected rhesus macaques (hypnozoites, relapse); experiment: Radical cure in P. cynomolgi sporozoite-infected rhesus macaques; assay type: in vivo, Plasmodium cynomolgi
Method: as §1
Monkeys were treated according to the schedule shown in Table 1 (stratification of treatment groups is given in the supplemental material). During treatment, monkeys were weighed daily and received the compound via gavage, followed by gastric feeding (weight change during treatment is shown in Table S6 in the supplemental material). Monkeys in the prophylaxis groups (groups 691-proph and 599-proph) were treated ∼20 min after the i.v. sporozoite injection. The other monkeys were treated when all the monkeys in the experiment (except those in the prophylaxis group) were blood-stage patent (at day 11 p.i.). To kill the blood-stage parasites, all monkeys received a 5-day treatment of 7.5 mg/kg of body weight of chloroquine (CQ) (intramuscular [i.m.] injection), during compound dosing. KDU691 was formulated in 0.5% methylcellulose and 0.5% Tween 80 in water. LMV599 was formulated as a solid dispersion in a solution containing 5.6% (wt/wt) Tween 80–44.4% hydroxypropyl methylcellulose (HPMC) E3–38.9% Soluplus–11.1% vitamin E D-alphatocopheryl polyethylene glycol 1000 succinate (TPGS).
Parasitemia was closely monitored by thin-film analysis. Animals were trained to present for thigh pricks, which was followed by a reward. Thin-film slides were stained with 20% Giemsa stain, and at least 50 fields (±20,000 erythrocytes [RBCs]) were analyzed with a bright-field microscope (×1,200 magnification). As soon as all monkeys other than the prophylactic treatment groups were blood-stage positive, treatment was started as indicated above (Table 1). After the last day of compound dosing, the absence of blood-stage parasites was confirmed by thin smears. From day 23 p.i., monkeys were monitored daily for relapses. The KDU691 radical-cure (group 691-RC) treatment and control groups were monitored until the first relapse. The LMV599 control (group 599-C), radical-cure (group 599-RC), and PQ radical-cure (group PQ-RC) treatment groups were monitored until the second relapse or until day 100 p.i. (whichever came first). At the end of the study, monkeys that had relapsed received a 14-day primaquine treatment, with a final check 2 weeks after the last primaquine dose.
P. cynomolgi sporozoite production
A monkey was infected with […] P. cynomolgi M strain blood stage parasites, thawed from a first passage stock (i.e. blood stage parasites from a monkey infected with P. cynomolgi M strain sporozoites). For each batch of sporozoites needed, a single monkey was infected with P. cynomolgi blood stage parasites.
At day 11 and 12 post infection 9 mL infected blood was collected into a Lithium-heparinised tube. The blood was kept at 38°C and fed approximately 500 three to five days old female Anopheles stephensi mosquitoes Sind-Kasur strain Nijmegen (Nijmegen University Medical Centre St Radboud, Department of Medical Microbiology) using a glass feeder system as described by Ponnudurai et al.. After the second bleed, the monkey was cured by three daily intramuscular injections of 7.5 mg/kg chloroquine, monitored for parasite clearance 24 days after chloroquine treatment and returned to colony.
Mosquitoes were kept in climate chambers at 25 °C and 80% humidity and were fed 5% D -glucose on cotton pads daily. Seven days after feeding on the infected rhesus blood, oocyst numbers were determined in midguts of ten individuals, using 1% mercurochrome stain. Mosquitoes were given a second (uninfected) blood meal immediately afterwards to promote sporozoite maturation and invasion of the salivary glands. Sporozoites were isolated from the P. cynomolgi infected mosquitoes around day16 after the infected blood meal.
In vivo monkey infection and treatment procedures […]

[4] = parameters: species or system mice and monkeys; settings: in vivo
Method: Details of in vivo PK studies of KDU691 and LMV599 in CD-1 mice and monkeys can be found in the supplemental material.
Pharmacokinetic analysis.
Mean values of compound concentrations in plasma and liver were obtained from three animals at each time point and plotted against time to generate concentration-time profiles. Pharmacokinetic parameters were determined using WinNonlin Professional, version 5.0.1 (Pharsight, California, USA), by non-compartmental modeling using software model 200 for oral dosing. The oral bioavailability (F) was calculated as the ratio between the area under the curve from 0 to infinity (AUCinf) following oral administration and the AUCinf following intravenous administration corrected for dose (F = AUCp.o. * dosei.v. / AUCi.v. * dosep.o.).
PK-PD relationship analysis.
The compound concentration that inhibited 50% of P. cynomolgi growth (IC50) was used to calculate the threshold (TRE = 3*IC50) and the PK-PD indices. The Cmax/TRE was defined as the ratio of peak plasma concentration (Cmax) to the threshold (3*IC50), the AUC0-24/TRE was defined as the ratio of area under the curve from 0 to 24 hours (AUC0-24) to the threshold, and the percent time over threshold (%T>TRE) was defined as the percentage of the 24 hour period during which the compound concentration exceeded the […]
Table S3: Monkey stratification for the in vivo testing of KDU691. […]

## CNC(=O)c1ccc(-c2cnc3cnc(C(=O)N(C)c4ccc(Cl)cc4)cn23)cc1 [KDU691]
[1]
  causal prophylactic outcome (blood-stage parasitemia): fully protective; also recorded: completely effective; also recorded: eradicated all liver-stage parasites, including hypnozoites
[2]
  IC50: 180 ± 210 nM
[3]; five daily oral doses of 20 mg/kg from day 11 p.i., 20 mg/kg
  radical-cure outcome: did not prevent relapse; also recorded: none of the animals treated with KDU691 were radically cured
[3]; group 691-RC, 20 mg/kg oral for 5 days from day 11 p.i. plus CQ, individual monkeys
  Day p.i. to first relapse: 31 day p.i. and 32 day p.i.
[3]; group 691-RC, 20 mg/kg oral for 5 days from day 11 p.i., control 25 ± 1.4
  day p.i. to first relapse, group mean ± SD: 31.8 ± 0.5 days p.i.
[3]; group 691-RC, 20 mg/kg oral for 5 days, P = 0.00912, log rank test
  delay to relapse compared to the control group: 6.8 days
[3]; group 691-RC, individual monkeys, baseline, before dosing started at day 11 p.i.
  Day p.i. to primary parasitemia: 9 day p.i.
[4]
  oral bioavailability: 52-66%
